In this assay the test system is ERK1/2. Briefly: ERK1/2 activation (phospho/total) by western blot in HeLa rtTA-HIV(Gag-GFP) cells. Format: cell-based, human. Particulars: relative to DMSO (+). As for the experimental part:
Figure 6 CSs control HIV-1 gene expression through intracellular signaling. HeLa rtTA-HIV(Gag-GFP) cells were pre-treated with/without pathway inhibitor overnight (~15 h) and treated with ~IC80s of CSs. […] (a–c) ERK1/2, MK-2, and JNK1/2/3 are activated upon treatment of cells with CSs (n ≥ 4–6, 3–4, and 3–6, resp., mean, s.e.m.). Graphs quantifying the activation level (phospho/total protein) of each MAP/MAPK by western blot. In (a), the results of pre-treating cells with a MEK1/2 inhibitor (12 μM U0126, MEKi) on ERK1/2 activation is also shown and a representative immunoblot is provided in Supplementary Figure S9c. (d) Representative immunoblots of MAP/MAPK activation levels from (a–c). (e–g) MEK1/2 activation may be involved in CS inhibition of HIV-1 gene expression. The signaling pathway(s) used by a CS to inhibit HIV-1 expression was determined by detecting Gag-GFP fluorescence in cell lysates (~35 μg) by reducing SDS-PAGE after pre-treatment of cells with a MEK1/2 (12 μM U0126, white), p38α/β/β2 (15 μM SB203580/p38i, gray), or JNK1/2/3 (1.25 μM SP600125/JNKi, hatched) inhibitor (n ≥ 5–7, 4–8, and 3–7, resp., mean, s.e.m.). Results were shown relative to DMSO (+). […]
Figure 7 Activation of the MEK1/2-ERK1/2 signaling pathway suppresses HIV-1 gene expression. […] RNAs were quantified by qRT-PCR as described in Figures 4a,b. […]
A general note: A western blot detects proteins with antibodies after separation by electrophoresis.

Structures are written as SMILES.

In article PMC5770468, “Cardiac glycoside/aglycones inhibit HIV-1 gene expression by a mechanism requiring MEK1/2-ERK1/2 signaling” (Scientific Reports, 2018) one finds ERK1/2 activation data, which are given here for one molecule.

Turning to `COc1ccc(C[C@H]2NC[C@H](O)[C@H]2OC(C)=O)cc1` [anisomycin, Anisomycin], the ERK1/2 activation entry is “activated”.
